Reference: patent US5219741A, “Method of making L-proline using an N-acyl-L-protine acylase” (priority 1990, dated 1993)
“Also recorded” adds a separate entry of the source. Like-named read-outs stand apart in the source and are kept apart here.

Experiments:
[1] = tested on: Comamonas testosteroni DSM 5416; experiment: Growth of the strain in culture medium (OD600); type: cell-based
Method: Strains which appeared uniform according to the colony morphology and the microscopic image were then cultivated in 100 ml liquid medium (500 ml Erlenmeyer flask with top and 4 lateral baffles) at 30° C. on a rotary agitator machine at 200 rpms. The culture medium had the following composition: […]
(§1) The carbon source of the culture medium with a concentration of 4 g/l was varied and the influence on growth and acylase formation determined.
(§2) The concentration of N-acetyl-L-proline was varied in a range of 1 g/l-5 g/l in steps of 1 g/l in the culture medium as described in Example 1.
(§3) The concentration of (NH4)2 SO4 was varied in a range of 1 g/l-5 g/l in steps of 1 g/l in the culture medium as described in Example 1.
(§4) The concentration of yeast extract was varied in a range of 1 g/l-5 g/l in steps of 1 g/l in the culture medium as described in Example 1.
(§5) The N-acetyl-L-proline concentration was reduced to 0.2 to 1.0 g/l in the culture medium as described in Example 1 and 4 g/l Na acetate were additionally added.
(§6) The method described above under f) was followed. However, the inductor, N-acetyl-L-proline, was not added to the nutrient medium until the late exponential growth phase after an incubation time of 12 hours.
(§7) The method described above under f) was followed. In addition to N-acetyl-L-proline, various N-acetyl- and N-chloroacetyl amino acids were added to the nutrient medium in a concentration of 1 g/l.

[2] = tested on: N-acyl-L-proline acylase formation in Comamonas testosteroni DSM 5416; experiment: Acylase formation: specific activity of N-acyl-L-proline acylase in crude extract; type: cell-based
Method: After 24 to 48 hours, the cell-containing nutrient medium was centrifuged (15 min., 4,500 g in a cooling centrifuge), the cells were washed twice with 0.9% (w/v) NaCl solution and resuspended in 10 ml 0.1M tris-HCl buffer, pH 7.0.
The microorganisms of this suspension were macerated by ultrasound treatment (Sonifier-Cell Disrupter B-30 of the firm Branson Sonic Power Co., Danbury, Conn., USA) (2 minutes pulsating, corresponding to 1 minute of pure ultrasonic radiation. The cell fragments and non-macerated cells were centrifuged in a cooled centrifuge 30 minutes at 40,000 g and 5° C. The clear supernatant (=crude extract) was used in an enzyme test.
The reaction was started by adding crude extract and the reaction batches customarily incubated for 10 minutes at 30° C. The incubation time and the amount of crude extract were selected so that the linearity range of the enzymatic reaction and of the subsequent proline detection were not exceeded.
(§8) The enzymatic reaction was interrupted by pipetting 50 μl of the enzyme sample into 1.25 ml 100% acetic acid. Subsequently, 0.45 ml 0.1M tris-HCl buffer pH 7.0 and 1.25 ml ninhydrin reagent (3 g ninhydrin dissolved by heating in a mixture of 60 ml 100% acetic acid and 40 ml 6M phosphoric acid) were added. The ninhydrin reagent was freshly prepared daily. The test tubes were loosely closed with screw-on caps, incubated 30 minutes at 100° C. and subsequently cooled down in an ice bath.
(§9) The L-proline, liberated by the enzymatic hydrolysis, forms a red dye with ninhydrin at 100° C. The absorption of the red dye was measured in a spectrophotometer at 480 nm relative to a control batch without crude extract (=substrate blank). The concentration of the L-proline produced was determined using a straight calibration line with L-proline in a range of 5 to 100 nmoles per 50 μl specimen. The enzyme activity was indicated in international units; thus, one unit (U) corresponded to an amount of 1 μmole L-proline produced per minute.
The protein determination was carried out with a protein-determination kit of the firm Pierce Chemical Co., Rockford, Ill., USA, according to Bradford, Anal. Biochem. 72, pp. 248-254 (1976).
as §1, §2, §3, §4, §5, §6, §7

N-acyl-L-proline acylase [3] = experiment: Substrate specificity: hydrolysis of N-acyl amino acids and proline derivatives; type: biochemical, Comamonas testosteroni DSM 5416; settings: for Rel. activity (%): 20 mM substrate 1.0 ml in 2.0 ml batch, 30° C., pH 7.0, N-acetyl-L-proline = 100%, amino-acid analyzer
Method: The activity of acylase was determined with various N-acetyl-L-amino acids and N-chloroacetyl-L-amino acids in a reaction batch with the following composition:
The reaction temperature was 30° C. and the incubation time 15 minutes to 24 hours. 0.2 ml samples of the reaction batch in each instance were mixed at different times with 0.2 ml 10% (w/v) trichloroacetic acid and the denatured protein centrifuged off for 10 minutes at 11,000 rpms in a table centrifuge. The supernatant was diluted with a 0.1M Na citrate buffer pH 2.2 with 25% (v/v) 2.2-thiodiethanol and 0.1% (v/v) phenol 1:5 and 1:50 respectively. The amino acids released were quantitatively detected by an amino-acid analyzer LC 5001 of the firm Biotronic, Maintal, Federal Republic of Germany. In Table 16, the substrates marked with * and the corresponding products were quantified by means of HPLC.
The activity of the acylase was determined with various proline derivatives as under a).

N-acyl-L-proline acylase [4] = type: biochemical, Comamonas testosteroni DSM 5416; settings: for Activity (%): no agent = 100
Method: as §8, §9
The influence of various chemical agents as well as metal cations and anions on the reaction speed of the hydrolytic splitting of N-acetyl-L-proline was determined at 30° C. in a reaction batch with the following composition: […]
The enzyme was pre-incubated for 10 minutes at 30° C. with the compound before the addition of substrate to start the reaction.
The enzyme was pre-incubated for 10 minutes at 30° C. with the agent before the substrate was added to start the reaction.
The enzyme was pre-incubated 10 minutes at 30° C. with the agent before the substrate was added to start the reaction. The concentration of the anions was 10 mM in each instance.

[5] = tested on: 1,10-phenanthroline-inactivated acylase (apoenzyme); experiment: Influence of cations on the 1,10-phenanthroline-inactivated acylase; type: biochemical, Comamonas testosteroni DSM 5416; settings: for Influence on the apoenzyme (in words): 1,10-phenanthroline-inactivated acylase
Method: FPLC/Mono Q purified enzyme was incubated for 24 hours at 4° C. in the presence of 1 mM 1,10-phenanthroline. Subsequently, enzyme and the chelating agent 1,10-phenanthroline were separated by gel filtration via Sephadex G-25M (PD-10, firm Pharmacia/LKB, Uppsala, Sweden). The enzyme-containing fractions were combined and the activity determined without and in the presence of various cations (1 mM).

[6] = carbon source 4 g/l in culture medium
[7] = inductor 1 g/l + 4 g/l Na acetate, 24 hours
[8] = metal cation salt 1 mM, native enzyme
[9] = metal cation salt 10 mM, native enzyme
[10] = inactivated enzyme after gel filtration + cation 1 mM, native enzyme = 100, no agent = 21
[11] = (NH4)2 SO4 1 g/l in culture medium, 23 hours
[12] = (NH4)2 SO4 2 g/l in culture medium, 23 hours
[13] = (NH4)2 SO4 3 g/l in culture medium, 23 hours
[14] = (NH4)2 SO4 4 g/l in culture medium, 23 hours
[15] = (NH4)2 SO4 5 g/l in culture medium, 23 hours

N[C@@H](Cc1c[nH]c2ccccc12)C(=O)O [Ltryptophane]
Growth (OD600) [1, 6]: No growth

CC(O)C(=O)O (stereo not drawn) [Lactate]
Growth (OD600) [1, 6]: 3.0 OD600
Spec. activity (U/mg) [2, 6]: < 0.01 U/mg

CCC(=O)O [Propionate]
Growth (OD600) [1, 6]: 1.9 OD600
Spec. activity (U/mg) [2, 6]: < 0.01 U/mg

CCCC(=O)O [Butyrate]
Growth (OD600) [1, 6]: 1.8 OD600
Spec. activity (U/mg) [2, 6]: < 0.01 U/mg

CC(=O)C(=O)O [Pyruvate]
Growth (OD600) [1, 6]: 2.4 OD600
Spec. activity (U/mg) [2, 6]: < 0.01 U/mg

O=C(O)[C@@H]1CCCN1 [L-proline]
Growth (OD600) [1, 6]: 3.9 OD600
Spec. activity (U/mg) [2, 6]: < 0.01 U/mg

O=C(CCl)N[C@@H](Cc1ccc(O)cc1)C(=O)O [ClAc--L--Tyr]
Growth (OD600) [1, 7]: 2.76 OD600
Rel. activity (%) (N-acyl-L-proline acylase [3]): 1.0%
Spec. activity (U/mg) [2, 7]: < 0.01 U/mg

[Cl-].[Cl-].[Co+2] [CoCl2]
Activity (%) (N-acyl-L-proline acylase [4]; [8]): 103%
Activity (%) (N-acyl-L-proline acylase [4]; [9]): 92%
Influence on the apoenzyme (in words) [5]: activating action
Activity (%) [5, 10]: 80%

O=S(=O)([O-])[O-].[Zn+2] [ZnSO4]
Activity (%) (N-acyl-L-proline acylase [4]; [8]): 77%
Activity (%) (N-acyl-L-proline acylase [4]; [9]): 32%
Influence on the acylase activity (in words) (N-acyl-L-proline acylase [4]; native enzyme): inhibiting action
Influence on the apoenzyme (in words) [5]: activating action
Activity (%) [5, 10]: 54%

CC(C)C[C@H](N)C(=O)O [L-leucine]
Growth (OD600) [1, 6]: 2.6 OD600
Spec. activity (U/mg) [2, 6]: < 0.01 U/mg

CC(=O)O [Acetate]
Growth (OD600) [1, 6]: 2.3 OD600
Acylase formation / induction (in words) [2]: not repressed
Spec. activity (U/mg) [2, 6]: < 0.01 U/mg

N[C@@H](Cc1c[nH]cn1)C(=O)O [Lhistidine]
Growth (OD600) [1, 6]: No growth

O=C(CO)[C@@H](O)[C@H](O)[C@H](O)CO [fructose]
Growth (OD600) [1, 6]: No growth

CC(C)C[C@H](NC(=O)CCl)C(=O)O [ClAc--L--Leu]
Growth (OD600) [1, 7]: 2.65 OD600
Rel. activity (%) (N-acyl-L-proline acylase [3]): 1.9%
Spec. activity (U/mg) [2, 7]: < 0.01 U/mg

CSCC[C@H](NC(=O)CCl)C(=O)O [N-chloroacetyl-L-methionine]
Growth (OD600) [1, 7]: 2.19 OD600
Hydrolysis by the acylase (in words) (N-acyl-L-proline acylase [3]): hydrolyzes; also recorded: reacted at a distinctly lower speed
Rel. activity (%) (N-acyl-L-proline acylase [3]): 17.1%
Spec. activity (U/mg) [2, 7]: < 0.01 U/mg

OC[C@H]1O[C@@H](O[C@H]2[C@H](O)[C@@H](O)C(O)O[C@@H]2CO)[C@H](O)[C@@H](O)[C@H]1O (stereo partly drawn) [lactose]
Growth (OD600) [1, 6]: No growth

[Cl][Hg][Cl] [HgCl2]
Activity (%) (N-acyl-L-proline acylase [4]; [8]): 67%
Activity (%) (N-acyl-L-proline acylase [4]; [9]): 9%
Influence on the acylase activity (in words) (N-acyl-L-proline acylase [4]; native enzyme): inhibiting action
Influence on the apoenzyme (in words) [5]: inhibited
Activity (%) [5, 10]: 6%

c1cnc2c(c1)ccc1cccnc12 [1,10 phenanthroline, 1,10-phenanthroline]
Activity (%) (N-acyl-L-proline acylase [4]; chemical agent 1 mM, 10 min pre-incubation at 30° C.): 27%
Activity (%) (N-acyl-L-proline acylase [4]; chemical agent 10 mM, 10 min pre-incubation at 30° C.): 1%
Influence on the acylase activity (in words) (N-acyl-L-proline acylase [4]; native enzyme): inhibiting action; also recorded: significantly inhibit
Activity (%) ([5]; enzyme incubated 24 hours at 4° C. with 1 mM 1,10-phenanthroline, before gel filtration, native enzyme = 100): 2%

phenylacetate
Growth (OD600) [1, 6]: No growth

OC[C@H]1O[C@@](CO)(O[C@H]2O[C@H](CO)[C@@H](O)[C@H](O)[C@H]2O)[C@@H](O)[C@@H]1O [saccharose]
Growth (OD600) [1, 6]: No growth

CC(=O)N[C@@H](C)C(=O)O [N-acetyl-L-alanine]
Growth (OD600) [1, 7]: 2.28 OD600
Hydrolysis by the acylase (in words) (N-acyl-L-proline acylase [3]): hydrolyzes; also recorded: reacted at a distinctly lower speed
Rel. activity (%) (N-acyl-L-proline acylase [3]): 9.3%
Spec. activity (U/mg) [2, 7]: < 0.01 U/mg

O=C[C@@H](O)[C@@H](O)[C@H](O)[C@H](O)CO [mannose]
Growth (OD600) [1, 6]: No growth

N.N.O=S(=O)(O)O [(NH4)2 SO4]
Growth (OD600) [1, 11]: 5.24 OD600
Growth (OD600) [1, 12]: 5.67 OD600
Growth (OD600) [1, 13]: 5.47 OD600
Growth (OD600) [1, 14]: 5.44 OD600
Growth (OD600) [1, 15]: 5.47 OD600
Optimum concentration in the culture medium for acylase formation [2]: 2 g/L
Spec. activity (U/mg) [2, 11]: 1.71 U/mg
Spec. activity (U/mg) [2, 12]: 1.91 U/mg
Spec. activity (U/mg) [2, 13]: 1.53 U/mg
Spec. activity (U/mg) [2, 14]: 1.59 U/mg
Spec. activity (U/mg) [2, 15]: 1.32 U/mg

N=C(N)NCCC[C@H](N)C(=O)O [Larginine]
Growth (OD600) [1, 6]: No growth

O=C[C@H](O)[C@@H](O)[C@H](O)[C@H](O)CO [glucose]
Growth (OD600) [1, 6]: No growth

N[C@@H](CO)C(=O)O [Lserin]
Growth (OD600) [1, 6]: No growth

O=C[C@H](O)[C@@H](O)[C@H](O)CO [xylose]
Growth (OD600) [1, 6]: No growth

CC(C)[C@H](NC(=O)CCl)C(=O)O [N-chloroacetyl-L-valine]
Growth (OD600) [1, 7]: 2.50 OD600
Hydrolysis by the acylase (in words) (N-acyl-L-proline acylase [3]): hydrolyzes; also recorded: reacted at a distinctly lower speed
Rel. activity (%) (N-acyl-L-proline acylase [3]): 14.1%
Spec. activity (U/mg) [2, 7]: < 0.01 U/mg

N[C@@H](CC(=O)O)C(=O)O [L-aspartate]
Growth (OD600) [1, 6]: 2.0 OD600
Spec. activity (U/mg) [2, 6]: < 0.01 U/mg

OC[C@H]1O[C@H](O[C@H]2[C@H](O)[C@@H](O)[C@H](O)O[C@@H]2CO)[C@H](O)[C@@H](O)[C@@H]1O [maltose]
Growth (OD600) [1, 6]: No growth

O=C(O)CC(O)(CC(=O)O)C(=O)O [citrate]
Growth (OD600) [1, 6]: No growth

OCC(O)CO [Glycerol]
Growth (OD600) [1, 6]: 1.1 OD600
Spec. activity (U/mg) [2, 6]: < 0.01 U/mg

O=C(CCl)N[C@@H](Cc1ccccc1)C(=O)O [ClAc--L--Phe]
Growth (OD600) [1, 7]: 2.89 OD600
Rel. activity (%) (N-acyl-L-proline acylase [3]): 1.0%
Spec. activity (U/mg) [2, 7]: < 0.01 U/mg

O=C(O)CC(O)C(=O)O (stereo not drawn) [Malate]
Growth (OD600) [1, 6]: 3.4 OD600
Spec. activity (U/mg) [2, 6]: < 0.01 U/mg
